Assay results from PMC5564600 (Oncotarget, 2017).

How the values were obtained:
Assay in all cases: biochemical
Assay type in all cases: binding
[1] = biological target: T1, panel of 442 kinases (Homo sapiens, UniProt P45983); details: kinase JNK1; for remaining activity at 1 µM: read-out: % of control at 1 µM
T1 construct: purchased Ambit Biosciences (scanMAXX KINOMEscan)

[2] = biological target: T2, panel of 442 kinases (Homo sapiens, UniProt Q96PY6); details: kinase NEK1; for remaining activity at 1 µM: read-out: % of control at 1 µM
T2 construct: purchased Ambit Biosciences (scanMAXX KINOMEscan)
T2 sequence (Q96PY6 1-1258): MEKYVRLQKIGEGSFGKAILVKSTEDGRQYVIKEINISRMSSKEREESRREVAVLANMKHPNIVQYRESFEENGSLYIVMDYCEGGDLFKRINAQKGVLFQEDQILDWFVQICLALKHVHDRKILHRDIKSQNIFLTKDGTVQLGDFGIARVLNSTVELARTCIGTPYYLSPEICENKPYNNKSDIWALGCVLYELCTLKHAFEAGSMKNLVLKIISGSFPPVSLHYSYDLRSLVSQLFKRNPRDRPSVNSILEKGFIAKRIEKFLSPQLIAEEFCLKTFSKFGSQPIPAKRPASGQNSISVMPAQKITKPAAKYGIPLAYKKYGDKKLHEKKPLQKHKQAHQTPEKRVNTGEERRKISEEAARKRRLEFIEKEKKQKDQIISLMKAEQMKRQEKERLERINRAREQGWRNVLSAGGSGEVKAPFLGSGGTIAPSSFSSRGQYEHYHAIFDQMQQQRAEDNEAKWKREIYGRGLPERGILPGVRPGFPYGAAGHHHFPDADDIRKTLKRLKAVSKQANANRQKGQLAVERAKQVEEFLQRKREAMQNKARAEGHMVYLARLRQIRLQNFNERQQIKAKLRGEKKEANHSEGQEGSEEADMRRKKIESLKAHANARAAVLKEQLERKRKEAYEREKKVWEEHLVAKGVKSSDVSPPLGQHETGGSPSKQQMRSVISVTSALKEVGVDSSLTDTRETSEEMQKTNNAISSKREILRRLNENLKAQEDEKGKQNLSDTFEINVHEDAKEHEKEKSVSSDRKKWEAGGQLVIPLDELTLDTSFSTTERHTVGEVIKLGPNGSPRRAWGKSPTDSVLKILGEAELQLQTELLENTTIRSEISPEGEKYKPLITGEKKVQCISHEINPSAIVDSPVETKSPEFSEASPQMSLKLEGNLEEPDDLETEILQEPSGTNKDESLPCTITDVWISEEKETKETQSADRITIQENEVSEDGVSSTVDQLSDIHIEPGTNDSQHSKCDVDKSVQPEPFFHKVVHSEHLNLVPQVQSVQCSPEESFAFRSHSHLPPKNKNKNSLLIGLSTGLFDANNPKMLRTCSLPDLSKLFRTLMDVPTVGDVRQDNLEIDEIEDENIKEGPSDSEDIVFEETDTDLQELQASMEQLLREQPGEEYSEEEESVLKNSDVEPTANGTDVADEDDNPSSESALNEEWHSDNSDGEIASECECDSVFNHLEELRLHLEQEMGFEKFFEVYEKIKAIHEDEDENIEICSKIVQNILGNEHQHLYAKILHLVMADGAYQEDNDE

[3] = biological target: T3, panel of 442 kinases (Homo sapiens, UniProt P06241); details: kinase FYN; for remaining activity at 1 µM: read-out: % of control at 1 µM
T3 construct: purchased Ambit Biosciences (scanMAXX KINOMEscan)
T3 sequence (P06241 whole entry): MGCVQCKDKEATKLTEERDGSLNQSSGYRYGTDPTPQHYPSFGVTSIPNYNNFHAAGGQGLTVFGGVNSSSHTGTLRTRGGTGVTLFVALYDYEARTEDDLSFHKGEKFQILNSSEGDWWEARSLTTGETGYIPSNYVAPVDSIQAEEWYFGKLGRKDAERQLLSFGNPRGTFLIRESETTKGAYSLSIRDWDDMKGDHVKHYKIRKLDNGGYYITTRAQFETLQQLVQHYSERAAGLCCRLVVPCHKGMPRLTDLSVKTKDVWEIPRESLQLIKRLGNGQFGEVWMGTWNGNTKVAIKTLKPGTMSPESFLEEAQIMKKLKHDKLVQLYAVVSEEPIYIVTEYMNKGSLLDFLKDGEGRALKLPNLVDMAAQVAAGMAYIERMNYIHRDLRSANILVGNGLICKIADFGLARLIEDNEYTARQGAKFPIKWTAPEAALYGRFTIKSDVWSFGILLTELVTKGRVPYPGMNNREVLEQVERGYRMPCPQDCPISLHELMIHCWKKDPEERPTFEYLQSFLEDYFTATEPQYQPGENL

[4] = biological target: T4, panel of 442 kinases (Homo sapiens, UniProt P04049); details: kinase RAF1; for remaining activity at 1 µM: read-out: RAF1 (% of control at 1 µM)
T4 construct: purchased Ambit Biosciences (scanMAXX KINOMEscan)
T4 sequence (P04049 whole entry): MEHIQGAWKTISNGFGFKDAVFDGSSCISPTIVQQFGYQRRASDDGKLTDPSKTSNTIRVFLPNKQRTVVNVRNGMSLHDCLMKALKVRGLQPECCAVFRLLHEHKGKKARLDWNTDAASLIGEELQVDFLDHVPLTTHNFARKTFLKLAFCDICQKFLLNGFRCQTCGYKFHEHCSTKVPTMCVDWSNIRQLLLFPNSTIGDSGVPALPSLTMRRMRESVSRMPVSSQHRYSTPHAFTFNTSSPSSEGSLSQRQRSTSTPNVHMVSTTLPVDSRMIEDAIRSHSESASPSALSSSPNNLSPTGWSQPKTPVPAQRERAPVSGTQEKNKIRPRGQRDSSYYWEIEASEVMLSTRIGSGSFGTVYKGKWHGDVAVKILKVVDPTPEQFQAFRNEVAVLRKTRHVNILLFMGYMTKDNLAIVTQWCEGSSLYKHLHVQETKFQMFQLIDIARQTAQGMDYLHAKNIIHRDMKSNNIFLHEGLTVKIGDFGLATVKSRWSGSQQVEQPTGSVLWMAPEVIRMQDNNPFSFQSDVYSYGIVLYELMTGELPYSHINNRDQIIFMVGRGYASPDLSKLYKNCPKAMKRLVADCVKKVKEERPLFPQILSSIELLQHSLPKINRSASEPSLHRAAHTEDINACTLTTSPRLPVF

[5] = biological target: T5, panel of 442 kinases (Homo sapiens, UniProt O15530); details: kinase PDPK1; for remaining activity at 1 µM: read-out: % of control at 1 µM
T5 construct: purchased Ambit Biosciences (scanMAXX KINOMEscan)
T5 sequence (O15530 1-556): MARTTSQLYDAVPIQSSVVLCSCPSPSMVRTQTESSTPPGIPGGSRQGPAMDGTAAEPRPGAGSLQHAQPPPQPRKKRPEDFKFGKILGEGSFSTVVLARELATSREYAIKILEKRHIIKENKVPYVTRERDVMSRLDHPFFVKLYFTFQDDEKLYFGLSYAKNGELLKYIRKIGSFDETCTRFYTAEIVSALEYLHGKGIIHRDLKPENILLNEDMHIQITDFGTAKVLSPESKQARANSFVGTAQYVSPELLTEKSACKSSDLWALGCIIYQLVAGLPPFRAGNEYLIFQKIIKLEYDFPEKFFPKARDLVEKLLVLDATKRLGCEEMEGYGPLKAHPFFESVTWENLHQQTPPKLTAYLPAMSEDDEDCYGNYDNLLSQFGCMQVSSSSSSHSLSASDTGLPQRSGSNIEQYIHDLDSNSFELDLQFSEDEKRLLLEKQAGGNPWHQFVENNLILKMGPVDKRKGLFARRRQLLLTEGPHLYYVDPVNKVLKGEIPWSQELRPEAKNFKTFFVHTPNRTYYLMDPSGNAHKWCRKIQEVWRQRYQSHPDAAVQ

[6] = biological target: T6, panel of 442 kinases (Homo sapiens, UniProt Q9NYY3); details: kinase PLK2; for remaining activity at 1 µM: read-out: PLK2 (% of control at 1 µM)
T6 construct: purchased Ambit Biosciences (scanMAXX KINOMEscan)
T6 sequence (Q9NYY3 whole entry): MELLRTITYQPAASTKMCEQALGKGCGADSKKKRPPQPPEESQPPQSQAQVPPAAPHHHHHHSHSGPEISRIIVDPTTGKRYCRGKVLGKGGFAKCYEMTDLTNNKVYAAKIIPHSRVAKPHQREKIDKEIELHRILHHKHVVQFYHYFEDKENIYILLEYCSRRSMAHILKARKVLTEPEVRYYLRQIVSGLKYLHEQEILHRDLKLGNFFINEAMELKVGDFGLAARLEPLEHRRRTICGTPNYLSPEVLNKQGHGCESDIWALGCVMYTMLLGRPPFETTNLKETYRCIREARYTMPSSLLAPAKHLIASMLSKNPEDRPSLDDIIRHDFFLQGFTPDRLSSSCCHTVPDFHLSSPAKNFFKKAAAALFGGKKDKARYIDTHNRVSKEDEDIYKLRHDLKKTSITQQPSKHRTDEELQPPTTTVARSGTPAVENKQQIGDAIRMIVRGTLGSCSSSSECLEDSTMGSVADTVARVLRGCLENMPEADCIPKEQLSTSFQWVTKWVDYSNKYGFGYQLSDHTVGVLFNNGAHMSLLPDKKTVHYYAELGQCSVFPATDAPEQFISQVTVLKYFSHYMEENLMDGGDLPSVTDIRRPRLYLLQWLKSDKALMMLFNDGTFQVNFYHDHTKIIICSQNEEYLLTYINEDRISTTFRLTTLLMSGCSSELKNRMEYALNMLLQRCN

[7] = 10 µM, read-out: % of control at 10 µM

T1 sequence (P45983 whole entry): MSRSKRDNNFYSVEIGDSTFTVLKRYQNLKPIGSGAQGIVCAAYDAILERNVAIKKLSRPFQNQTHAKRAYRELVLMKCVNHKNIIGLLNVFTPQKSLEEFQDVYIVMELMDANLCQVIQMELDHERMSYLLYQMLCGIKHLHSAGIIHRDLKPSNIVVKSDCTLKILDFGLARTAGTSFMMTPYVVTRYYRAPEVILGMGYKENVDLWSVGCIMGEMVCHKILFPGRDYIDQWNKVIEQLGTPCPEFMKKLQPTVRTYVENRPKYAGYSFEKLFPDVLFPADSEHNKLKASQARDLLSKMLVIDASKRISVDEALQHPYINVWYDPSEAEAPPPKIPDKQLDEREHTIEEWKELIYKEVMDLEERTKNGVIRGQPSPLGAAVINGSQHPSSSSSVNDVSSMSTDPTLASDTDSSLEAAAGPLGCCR

Row | SMILES | remaining activity at 1 µM [1] [%] | remaining activity at 10 µM [1, 7] [%] | remaining activity at 1 µM [2] [%] | remaining activity at 10 µM [2, 7] [%] | remaining activity at 1 µM [3] [%] | remaining activity at 10 µM [3, 7] [%] | remaining activity at 1 µM [4] [%] | remaining activity at 10 µM ([4]; 10 µM, read-out: RAF1 (% of control at 10 µM)) [%] | remaining activity at 1 µM [5] [%] | remaining activity at 10 µM [5, 7] [%] | remaining activity at 1 µM [6] [%] | remaining activity at 10 µM ([6]; 10 µM, read-out: PLK2 (% of control at 10 µM)) [%]
1 | Nc1cc(C(F)(F)F)c(-c2cc(N3CCOCC3)nc(N3CCOCC3)n2)cn1 [Buparlisib] | 98 | 100 | 100 | 100 | 100 | 100 | 100 | 100 | 89 | 100 | 89 | 100
2 | Cn1c(=O)n(-c2ccc(C(C)(C)C#N)cc2)c2c3cc(-c4cnc5ccccc5c4)ccc3ncc21 [Dactolisib, 2-methyl-2-[4-(3-methyl-2-oxo-8-quinolin-3-yl-2,3-dihydroimidazo[4,5-c]quinolin-1-yl)-phenyl] propionitrile] | 84 | – | 98 | – | 81 | – | 94 | – | 90 | – | 100 | –
3 | COc1ncc(-c2ccc3nccc(-c4ccnnc4)c3c2)cc1NS(=O)(=O)c1ccc(F)cc1F [Omipalisib] | 100 | – | 87 | – | 100 | – | 100 | – | 96 | – | 100 | –
4 | FC(F)c1nc2ccccc2n1-c1nc(N2CCOCC2)nc(N2CCOCC2)n1 [ZSTK474, 2-(difluoromethyl)-1-[4,6-di(4-morpholinyl)-1,3,5-triazin-2-yl]-1H-benzimidazole] | 86 | – | 100 | – | 80 | – | 73 | – | 100 | – | 100 | –
